Blank lines part the entries; values can stand above or below the compound they belong to.
Experiments:
[1] = target: T1, Serine/threonine-protein kinase greatwall (Homo sapiens) (UniProt Q96GX5); experiment: Selectivity interaction (ActivX KiNativ screen (kinase selectivity in THP-1 cell lysates)) EUB0000639a MASTL; assay type: subcellular; details: lysate, at 1 µM
T1 sequence (whole entry): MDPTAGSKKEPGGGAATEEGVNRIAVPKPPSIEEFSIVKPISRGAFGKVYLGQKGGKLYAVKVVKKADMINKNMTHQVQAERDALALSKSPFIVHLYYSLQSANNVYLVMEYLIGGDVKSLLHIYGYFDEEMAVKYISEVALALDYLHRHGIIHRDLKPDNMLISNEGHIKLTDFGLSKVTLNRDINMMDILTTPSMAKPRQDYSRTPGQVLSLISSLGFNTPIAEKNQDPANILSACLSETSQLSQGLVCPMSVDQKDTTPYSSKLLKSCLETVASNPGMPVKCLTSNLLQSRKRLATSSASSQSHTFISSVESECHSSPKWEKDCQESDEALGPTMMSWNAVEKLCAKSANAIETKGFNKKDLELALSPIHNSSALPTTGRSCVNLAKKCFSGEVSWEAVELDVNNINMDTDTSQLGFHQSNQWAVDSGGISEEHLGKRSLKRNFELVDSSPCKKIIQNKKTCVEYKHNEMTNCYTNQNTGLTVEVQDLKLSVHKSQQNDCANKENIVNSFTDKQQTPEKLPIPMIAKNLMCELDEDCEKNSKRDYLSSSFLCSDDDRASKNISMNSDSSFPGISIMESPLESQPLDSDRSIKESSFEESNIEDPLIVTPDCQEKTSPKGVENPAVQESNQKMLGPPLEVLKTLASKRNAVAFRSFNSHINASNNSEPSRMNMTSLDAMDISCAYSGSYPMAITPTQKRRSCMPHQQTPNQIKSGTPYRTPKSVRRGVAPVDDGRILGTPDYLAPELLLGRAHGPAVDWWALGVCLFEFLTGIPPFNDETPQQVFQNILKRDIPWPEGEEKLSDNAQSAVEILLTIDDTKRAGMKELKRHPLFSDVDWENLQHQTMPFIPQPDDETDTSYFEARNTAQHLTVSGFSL

[2] = target: T2, Receptor-interacting serine/threonine-protein kinase 1 (Homo sapiens) (UniProt Q13546); experiment: Selectivity interaction (Ambit KINOMEscan and KiNATiv profiling in Jurkat cells) EUB0000090b RIPK1; assay type: cell-based; details: at 1 µM
T2 sequence (whole entry): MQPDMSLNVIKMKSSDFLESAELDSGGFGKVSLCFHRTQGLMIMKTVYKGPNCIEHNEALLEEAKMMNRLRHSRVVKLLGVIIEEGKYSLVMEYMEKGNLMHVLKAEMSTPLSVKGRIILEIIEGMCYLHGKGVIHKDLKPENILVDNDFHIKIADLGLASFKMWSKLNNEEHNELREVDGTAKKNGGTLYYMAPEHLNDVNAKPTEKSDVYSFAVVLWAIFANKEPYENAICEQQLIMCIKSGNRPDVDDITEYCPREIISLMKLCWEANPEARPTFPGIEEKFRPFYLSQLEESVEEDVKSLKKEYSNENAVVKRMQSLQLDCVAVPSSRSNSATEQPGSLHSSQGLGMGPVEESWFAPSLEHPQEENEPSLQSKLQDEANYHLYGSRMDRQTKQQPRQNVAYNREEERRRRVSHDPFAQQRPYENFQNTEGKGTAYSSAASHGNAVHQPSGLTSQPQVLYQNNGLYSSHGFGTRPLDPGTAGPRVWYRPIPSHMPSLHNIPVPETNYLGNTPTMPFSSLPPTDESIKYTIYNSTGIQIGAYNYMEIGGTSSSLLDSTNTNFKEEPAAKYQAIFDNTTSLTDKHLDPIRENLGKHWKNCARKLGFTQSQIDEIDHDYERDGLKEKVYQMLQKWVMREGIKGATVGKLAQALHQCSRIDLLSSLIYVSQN

[3] = target: T3, Ephrin type-B receptor 1 (Homo sapiens) (UniProt P54762); experiment: Selectivity interaction (KinomeScan (DiscoverX)) EUB0000655a EPHB1; details: at 10 µM
T3 sequence (whole entry): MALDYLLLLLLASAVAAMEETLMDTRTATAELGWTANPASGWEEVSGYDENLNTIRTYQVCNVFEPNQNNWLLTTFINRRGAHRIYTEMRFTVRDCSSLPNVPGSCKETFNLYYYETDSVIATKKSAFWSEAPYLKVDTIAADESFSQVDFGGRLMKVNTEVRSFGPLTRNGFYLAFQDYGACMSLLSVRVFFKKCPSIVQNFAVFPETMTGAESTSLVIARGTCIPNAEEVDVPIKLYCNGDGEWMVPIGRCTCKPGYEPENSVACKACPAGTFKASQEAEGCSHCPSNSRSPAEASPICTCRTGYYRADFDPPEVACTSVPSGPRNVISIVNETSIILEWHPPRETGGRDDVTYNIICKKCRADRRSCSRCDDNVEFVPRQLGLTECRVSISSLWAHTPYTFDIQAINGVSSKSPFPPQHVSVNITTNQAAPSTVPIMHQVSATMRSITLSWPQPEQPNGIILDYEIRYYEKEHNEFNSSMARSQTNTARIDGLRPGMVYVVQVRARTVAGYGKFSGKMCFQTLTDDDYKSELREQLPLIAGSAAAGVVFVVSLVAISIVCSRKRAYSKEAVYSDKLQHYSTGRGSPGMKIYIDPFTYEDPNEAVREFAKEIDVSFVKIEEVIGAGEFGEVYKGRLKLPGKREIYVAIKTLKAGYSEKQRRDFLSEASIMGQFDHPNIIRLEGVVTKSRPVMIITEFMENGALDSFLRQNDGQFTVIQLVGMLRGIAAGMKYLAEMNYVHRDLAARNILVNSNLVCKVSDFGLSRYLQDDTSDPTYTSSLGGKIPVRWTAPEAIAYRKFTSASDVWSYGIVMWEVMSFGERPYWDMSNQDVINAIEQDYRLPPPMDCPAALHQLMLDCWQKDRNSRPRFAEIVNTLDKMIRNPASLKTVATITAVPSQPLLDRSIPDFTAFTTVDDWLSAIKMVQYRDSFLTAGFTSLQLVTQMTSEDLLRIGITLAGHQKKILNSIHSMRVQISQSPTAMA

[4] = target: Serine/threonine-protein kinase 25 (Homo sapiens) (UniProt O00506); experiment: Selectivity interaction (KinomeScan (DiscoverX)) EUB0000618a STK25; details: at 10 µM
Serine/threonine-protein kinase 25 (Homo sapiens), sequence (O00506 whole entry, looked up): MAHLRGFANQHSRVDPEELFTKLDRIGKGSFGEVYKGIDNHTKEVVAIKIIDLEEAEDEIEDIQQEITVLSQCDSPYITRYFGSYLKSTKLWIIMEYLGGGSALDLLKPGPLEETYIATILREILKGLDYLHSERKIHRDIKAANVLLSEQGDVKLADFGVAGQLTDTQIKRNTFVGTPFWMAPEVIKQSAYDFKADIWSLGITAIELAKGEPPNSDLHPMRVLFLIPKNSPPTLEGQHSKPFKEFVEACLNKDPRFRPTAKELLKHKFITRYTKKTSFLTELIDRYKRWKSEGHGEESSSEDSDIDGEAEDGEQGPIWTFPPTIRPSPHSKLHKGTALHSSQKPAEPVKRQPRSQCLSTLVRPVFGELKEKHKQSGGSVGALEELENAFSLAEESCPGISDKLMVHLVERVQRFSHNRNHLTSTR

% of inhibition [1]: 35.1%
SMILES: CC[C@@H]1[C@H](F)C(=O)N[C@@H]1COc1nccc2cc(C(N)=O)c(OC)cc12 [ZIMLOVISERTIB]

SMILES: CN(C)C/C=C/C(=O)Nc1ccc(C(=O)N2CCCC(Nc3ncc(Cl)c(-c4c[nH]c5ccccc45)n3)C2)cc1 (centres undefined)
% of control [2]: 94%

SMILES: CN(C)CCOc1ccc(-c2nc(-c3ccncc3)c(-c3ccc4c(c3)CC/C4=N\O)[nH]2)cc1
% of control [3]: 100%

SMILES: O[C@H]1CC[C@H](Nc2ncc3nc(Nc4c(F)cc(F)cc4F)n([C@H]4CCOC4)c3n2)CC1
% of control [4]: 64%

From ChEMBL document CHEMBL5465560, “Selectivity Literature for EUbOPEN Chemogenomic Library” (2024)
